The text below walks through data of patent publication US20260365627A1, “NOVEL ECTONUCLEOTIDE PYROPHOSPHATASE / PHOSPHODIESTERASE 1 (ENPP-1) INHIBITORS AND USES THEREOF” (SRAVATHI AI TECHNOLOGY PRIVATE LIMITED, priority 2022, published 2026).

The target of one assay is T1, Human ENPP-1 (Homo sapiens, UniProt P22413).
T1 sequence (P22413 1-925): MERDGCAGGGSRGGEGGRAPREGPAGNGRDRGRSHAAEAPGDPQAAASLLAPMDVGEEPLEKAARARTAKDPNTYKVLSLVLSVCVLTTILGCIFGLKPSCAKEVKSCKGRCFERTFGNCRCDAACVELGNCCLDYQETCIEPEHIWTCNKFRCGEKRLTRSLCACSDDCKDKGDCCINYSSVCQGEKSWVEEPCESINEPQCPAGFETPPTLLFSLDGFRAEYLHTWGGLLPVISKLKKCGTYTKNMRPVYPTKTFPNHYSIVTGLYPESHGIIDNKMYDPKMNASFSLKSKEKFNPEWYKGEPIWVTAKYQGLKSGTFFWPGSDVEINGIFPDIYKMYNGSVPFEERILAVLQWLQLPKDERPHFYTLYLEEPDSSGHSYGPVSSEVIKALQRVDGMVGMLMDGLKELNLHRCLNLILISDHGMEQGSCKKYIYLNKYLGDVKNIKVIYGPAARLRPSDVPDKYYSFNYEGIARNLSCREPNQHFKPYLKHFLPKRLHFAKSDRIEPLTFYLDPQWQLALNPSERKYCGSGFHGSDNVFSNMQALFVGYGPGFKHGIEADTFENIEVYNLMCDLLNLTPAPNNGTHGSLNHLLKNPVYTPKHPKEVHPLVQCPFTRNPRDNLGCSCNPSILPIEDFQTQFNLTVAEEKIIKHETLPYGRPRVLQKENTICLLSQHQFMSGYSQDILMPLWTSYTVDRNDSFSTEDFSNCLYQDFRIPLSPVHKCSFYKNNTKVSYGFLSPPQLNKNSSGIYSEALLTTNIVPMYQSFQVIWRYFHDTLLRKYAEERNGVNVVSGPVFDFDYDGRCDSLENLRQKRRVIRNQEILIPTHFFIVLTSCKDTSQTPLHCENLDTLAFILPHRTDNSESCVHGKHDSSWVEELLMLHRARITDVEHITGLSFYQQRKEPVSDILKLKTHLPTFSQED
As to the kind of experiment: ENPP-1 Inhibition Assay (cGAMP substrate, AMP Glo luminescence). The format is biochemical. As to conditions: Human ENPP-1 3 nM, 5 μM cGAMP, pH 7.4, 40 μM HSA, RT 3 hrs; read-out: IC50 values of compounds of the invention, 0.1-1 uM. On the procedure: Assay method: Human ENPP-1 at 3 nM prepared in pH 7.4 was incubated with 5 μM cGAMP substrate with the test samples prepared in buffer with pH 7.4 along with 40 μM HSA. The reaction was incubated at RT for 3 hrs. Post incubation, the reaction was stopped by heating the contents at 95 °C for 10 mins. 10 μl of the solution was added to 384-well plate to which 10 μl of AMP Glo reagent-1 was added and incubated for 60 mins at 25 °C. After the incubation, 20 μl of AMP detection solution was added to each well with the enzyme reaction and incubated for 60 mins at 25 °C. The luminescence signal (RLU) was recorded using SpectraMax I3X plate reader.
The luminescence signal is measured as a function of concentration of the inhibitor. If the inhibitor molecule is active, as the concentration of the inhibitor increases, the luminescence value (referred to as OD) decreases. % Inhibition is then calculated as
% Inhibition=((OD of Control−OD of sample)/OD of Control)×100
In this disclosure, the IC50 value of an inhibitor molecule is measured as the concentration of inhibitor which inhibits growth of 50% of the human ENPP-1. A graph of inhibitor concentration on X-axis vs. percentage inhibition on Y-axis is drawn and the […] is measured as the IC50 value.
`COc1cc2ncnc(N=S(C)(=O)c3ccc(NC(N)=S)cc3)c2cc1OC` (stereo not drawn) [SAPTI012S007]: the IC50 is 100 to 1000 nM.
With `COc1cc2ncnc(N=S(C)(=O)c3cccc(NS(N)(=O)=O)c3)c2cc1OC` (stereo not drawn) [SAPTI012S010], the IC50 lay within 100 to 1000 nM.
On the same count and under the same terms, the result for `COc1cc2ncnc(N=S(C)(=O)c3cccc(N(C)C(N)=O)c3)c2cc1OC` (stereo not drawn) [SAPTI012S012] reads 100 to 1000 nM.
For `COc1cc2ncnc(N=S(C)(=O)c3ccc(C(=O)O)cc3)c2cc1OC` (stereo not drawn) [SAPTI012S014], the IC50 lay within 100 to 1000 nM.
Same read-out and setting: the result for `COc1cc2ncnc(N=S(C)(=O)c3cccc(C(N)=O)c3)c2cc1OC` (stereo not drawn) [SAPTI012S022] reads 100 to 1000 nM; that for `COc1cc2ncnc(N=S(C)(=O)c3ccc(CCP(=O)(O)O)cc3)c2cc1OC` (stereo not drawn) [SAPTI012S025], 100 to 1000 nM.
The same measure, in the same setting: the result for `COc1cc2ncnc(N=S(=O)(c3cccc(NC(N)=O)c3)C3CC3)c2cc1OC` (stereo not drawn) [SAPTI012S032] reads 100 to 1000 nM; that for `COc1cc2ncnc(N=S(=O)(c3ccccc3)c3ccc(NC(N)=O)cc3)c2cc1OC` (stereo not drawn) [SAPTI012S034], 100 to 1000 nM.
Same read-out and setting: to `COc1cccc2c(N=S(C)(=O)c3ccc(B(O)O)cc3)ncnc12` (stereo not drawn) [SAPTI012S035] belongs 100 to 1000 nM.

The same assay, now with this note: Human ENPP-1 3 nM, 5 μM cGAMP, pH 7.4, 40 μM HSA, RT 3 hrs; read-out: IC50 values of compounds of the invention, 1-10 uM.
For the compound `COc1cc2ncnc(N=S(C)(=O)c3ccc(P(=O)(O)O)cc3)c2cc1OC` (stereo not drawn) [SAPTI012S001], the 50% inhibitory concentration (IC50) was 1000 to 10000 nM.
On the same count and under the same terms, to `COc1cc2ncnc(N=S(C)(=O)c3cccc(P(=O)(O)O)c3)c2cc1OC` (stereo not drawn) [SAPTI012S002] belongs 1000 to 10000 nM.
Still for that read-out and setting: to `COc1cccc2c(N=S(C)(=O)c3cccc(N(C)C(N)=O)c3)ncnc12` (stereo not drawn) [SAPTI012S013] belongs 1000 to 10000 nM; to `COc1cc2nccc(N=S(C)(=O)c3ccc(C(N)=O)cc3)c2cc1OC` (stereo not drawn) [SAPTI012S018], 1000 to 10000 nM.
The same measure, in the same setting: the result for `Cn1ccc2c(N=S(C)(=O)c3ccc(C(N)=O)cc3)ncnc21` (stereo not drawn) [SAPTI012S019] reads 1000 to 10000 nM; that for `COc1cccc2c(N=S(C)(=O)c3ccc(C(N)=O)cc3)ccnc12` (stereo not drawn) [SAPTI012S020], 1000 to 10000 nM; that for `COc1cccc2ncnc(N=S(C)(=O)c3ccc(B(O)O)cc3)c12` (stereo not drawn) [SAPTI012S039], 1000 to 10000 nM.
`COc1cc2ncnc(N=S(C)(=O)c3ccc(F)c(B(O)O)c3)c2cc1OC` (stereo not drawn) [SAPTI012S043]: the IC50 lay in the range of 1000 to 10000 nM.

Staying with this assay, now noted: Human ENPP-1 3 nM, 5 μM cGAMP, pH 7.4, 40 μM HSA, RT 3 hrs; read-out: IC50 values of compounds of the invention, <100 nM.
As for `COc1cc2ncnc(N=S(C)(=O)c3ccc(B(O)O)cc3)c2cc1OC` (racemic) [SAPTI012S006], the IC50 was less than 100 nM.
For the compound `COc1cc2ncnc(N=S(C)(=O)c3cccc(B(O)O)c3)c2cc1OC` (stereo not drawn) [SAPTI012S005], the IC50 was less than 100 nM.
With `COc1cc2ncnc(N=S(C)(=O)c3ccc(S(C)(=N)=O)cc3)c2cc1OC` (stereo not drawn) [SAPTI012S008], the IC50 is less than 100 nM.
On the same count and under the same terms, to `COc1cc2ncnc(N=S(C)(=O)c3ccc(NC(=O)Nc4ccccc4)cc3)c2cc1OC` (stereo not drawn) [SAPTI012S009] belongs less than 100 nM.
Take `COc1cc2ncnc(N=S(C)(=O)c3cccc(NC(N)=O)c3)c2cc1OC` (stereo not drawn) [SAPTI012S011]: the IC50 was less than 100 nM.
As for `COc1cc2ncnc(N=S(C)(=O)c3ccc(CNC(N)=O)cc3)c2cc1OC` (stereo not drawn) [SAPTI012S015], the IC50 is less than 100 nM.
The same measure, in the same setting: to `COc1cc2ncnc(N=S(C)(=O)c3ccc(C(N)=O)cc3)c2cc1OC` (stereo not drawn) [SAPTI012S016] belongs less than 100 nM.
Same read-out and setting: to `COc1cc2ncnc(N=S(C)(=O)c3cccc(C(=O)O)c3)c2cc1OC` (stereo not drawn) [SAPTI012S021] belongs less than 100 nM.
The same measure, in the same setting: to `COc1cc2ncnc(N=S(C)(=O)c3cccc(CNC(N)=O)c3)c2cc1OC` (stereo not drawn) [SAPTI012S024] belongs less than 100 nM; to `COc1cc2ncnc(N=S(C)(=O)c3cccc4c(P(=O)(O)O)cccc34)c2cc1OC` (stereo not drawn) [SAPTI012S028], less than 100 nM.
Regarding `COc1cc2ncnc(N=S(C)(=O)c3cccc4c(NC(N)=O)cccc34)c2cc1OC` (stereo not drawn) [SAPTI012S029], the IC50 is less than 100 nM.
As to `COc1cc2ncnc(N=S(=O)(c3cccc(NC(N)=O)c3)C3CCCC3)c2cc1OC` (stereo not drawn) [SAPTI012S030], the IC50 was less than 100 nM.
Turning to `COc1cc2ncnc(N=S(=O)(c3ccc(P(=O)(O)O)cc3)C(C)C)c2cc1OC` (stereo not drawn) [SAPTI012S031], the IC50 is less than 100 nM.
Turning to `COc1cc2nccc(N=S(C)(=O)c3ccc(B(O)O)cc3)c2cc1OC` (stereo not drawn) [SAPTI012S036], the 50% inhibitory concentration (IC50) is less than 100 nM.
On the same count and under the same terms, to `COc1nccc2c(N=S(C)(=O)c3ccc(B(O)O)cc3)ncnc12` (stereo not drawn) [SAPTI012S040] belongs less than 100 nM.
For `COc1cc2ncnc(N=S(C)(=O)c3ccc(CC(N)=O)cc3)c2cc1OC` (stereo not drawn) [SAPTI012S042], the IC50 is less than 100 nM.

Staying with this assay, now noted: Human ENPP-1 3 nM, 5 μM cGAMP, pH 7.4, 40 μM HSA, RT 3 hrs; read-out: IC50 values of compounds of the invention, >10 uM.
With `COc1cc2ncnc(N=S(C)(=O)c3ccc(NS(N)(=O)=O)cc3)c2cc1OC` (stereo not drawn) [SAPTI012S003, N-{4-[N-(6,7-dimethoxyquinazoline-4-)-S-methanesulfonimidoyl]phenyl}sulfuric diamide], the IC50 was more than 10000 nM.
The same measure, in the same setting: the result for `COc1cccc2c(N=S(C)(=O)c3ccc(C(N)=O)cc3)ncnc12` (stereo not drawn) [SAPTI012S017] reads more than 10000 nM; that for `COc1cc2ncnc(N=S(C)(=O)c3cccc(CN)c3)c2cc1OC` (stereo not drawn) [SAPTI012S023], more than 10000 nM.
On the same count and under the same terms, the result for `COc1cc2ncnc(N=S3(=O)CCC(C)(C)c4cc(P(=O)(O)O)ccc43)c2cc1OC` (stereo not drawn) [SAPTI012S026] reads more than 10000 nM; that for `COc1cc2ncnc(N=S(=O)(CCCP(=O)(O)O)c3ccccc3)c2cc1OC` (stereo not drawn) [SAPTI012S027], more than 10000 nM.
Consider `COc1cc2ncnc(N=S(=O)(c3cccc(NC(N)=O)c3)C(C)C)c2cc1OC` (stereo not drawn) [SAPTI012S033], for which the half-maximal inhibitory concentration (IC50) is more than 10000 nM.
Still for that read-out and setting: to `Cn1ccc2c(N=S(C)(=O)c3ccc(B(O)O)cc3)ncnc21` (stereo not drawn) [SAPTI012S037] belongs more than 10000 nM; to `CS(=O)(=Nc1ncnc2ccc(F)cc12)c1ccc(B(O)O)cc1` (stereo not drawn) [SAPTI012S038], more than 10000 nM; to `CS(=O)(=Nc1ncnc2ccccc12)c1ccc(B(O)O)cc1` (stereo not drawn) [SAPTI012S041], more than 10000 nM.

Still in this assay, the particulars now being: racemate and enantiomers separated by chiral HPLC; Human ENPP-1 3 nM, 5 μM cGAMP, pH 7.4, 40 μM HSA; read-out: IC50 value range (enantiomers of SAPTI012S006).
Consider `COc1cc2ncnc(N=S(C)(=O)c3ccc(B(O)O)cc3)c2cc1OC` (racemic) [SAPTI012S006], for which the IC50 was less than 100 nM.
Turning to `COc1cc2ncnc(N=S(C)(=O)c3ccc(B(O)O)cc3)c2cc1OC` (single isomer, unassigned) [SAPTI012S006-E1], the IC50 was more than 100 nM.
On the same count and under the same terms, to `COc1cc2ncnc(N=S(C)(=O)c3ccc(B(O)O)cc3)c2cc1OC` (single isomer, unassigned) [SAPTI012S006-E2] belongs less than 100 nM.

One may read the IC50 as the concentration that gives 50% inhibition.
